# Values joined by “and” are separate entries in the source; they are usually repeats but may differ in a detail not shown here. Equal entries are not always repeated. “Also recorded” adds a separate entry of the source. Where two headings read alike, the source gives them in different places.
# Columns and labels:
# [1] = tested on: OMA1; experiment: OMA1 antagonist test: CCCP-induced OPA1 cleavage in HEK293T cells, OPA1 Western blot; type: cell-based, human; conditions: for proteolytic cleavage of large OPA1 isoforms upon CCCP: 2 hours before 10 μM CCCP for 30 min
# Experimental: HEK293T cells were cultured and maintained in Dulbecco's Modified Eagle's Medium supplemented with 10% fetal bovine serum (FBS) and 2 mM […] in a 95% air-5% CO2 humidified atmosphere at 37° C. To test potential OMA1 antagonists, cells were seeded in 24-well plates and incubated over night to achieve around 90% confluency. For experiments the culture medium was replaced with Minimal Essential Medium and cells were pre-incubated with variable concentrations of the different test-compounds for 2 hours in a 95% air-5% CO2 humidified atmosphere at 37° C. After 2 hours, OMA1 protease was activated through the addition of carbonyl cyanide m-chlorophenyl hydrazone (CCCP; 10 μM final concentration) for 30 min in the presence of different concentrations of compounds to be tested. After 30 minutes, cells were immediately placed on ice, the medium removed, and cells harvested through addition of 100 μl RIPA buffer supplemented with protease inhibitor cocktail. Samples were separated on 8% tris-glycine gels and transferred onto nitro-cellulose membranes by Wester blotting. Membranes were immunolabeled with anti-OPA1 Antibodies (1:1,000) and with goat-anti-mouse Alkaline Phosphatase conjugated secondary antibodies (1:5,000). OPA1 protein was visualized with NBT/BCIP between 5 and 15 minutes before the reaction was stopped with an excess of distilled water.
# CCCP is a potent mitochondrial oxidative phosphorylation uncoupler that activates OMA1 and creates conditions that allow OPA1 cleavage to occur.
# [2] = tested on: OMA1; experiment: OMA1 agonist test: CCCP threshold of OMA1 activation/OPA1 cleavage in HEK293T cells; type: cell-based, human
# [3] = tested on: OMA1; experiment: OPA1-Western blot of Hek293T cells incubated with tipranavir, OMA1 activated with CCCP or sorafenib; type: cell-based, human
# Experimental: FIG. 28. […] OMA1 was activated with 3 μM CCCP for 30 minutes.
# FIG. 29. Tipranavir can activate OMA1 at concentrations above 20 μM. […] OMA1 was then activated with 4 μM CCCP for 30 minutes in the indicated samples.
# FIG. 30. […] OMA1 was then activated with either 3 μM CCCP or 30 μM sorafenib (SFB) for 30 minutes in the indicated samples.
# Experimentally, OMA1 can be activated in cellular assays by the mitochondrial uncoupler [(3-chlorophenyl)hydrazono]propanedinitrile (CCCP).
# Example 9. Tipranavir can activate OMA1 at concentrations above 20 μM. To further determine tipranavir's effect on OPA1, I incubated Hek293T cells for an hour with low doses of 0 μM, 20 μM and 40 μM tipranavir (FIG. 29).
# Example 10. 100 μM tipranavir can inhibit OPA1 cleavage upon CCCP-treatment and upon sorafenib treatment. […] To investigate whether 100 μM tipranavir can inhibit CCCP-induced OPA1-cleavage or OPA1-cleavage induced by other agents as well, I incubated Hek293T cells for an hour with low doses of 0 μM, 50 μM or 100 μM tipranavir before activating OMA1 with either 3 μM CCCP or 30 μM sorafenib (see FIG. 30).
# [4] = tested on: OMA1; experiment: OMA1 gene expression micro-arrays in rat brain; type: in vivo; conditions: 10 exposures
# Experimental: Rats were exposed to 1% Isoflurane for 90 minutes twice daily for a total of 5 or 10 exposures, after which animals were sacrificed and brain samples analyzed by gene expression micro-arrays (Pan et al. 2006).
# [5] = tested on: OMA1; conditions: 1% Isoflurane, 90 minutes twice daily, cited from earlier work
# [6] = tested on: OMA1; experiment: OMA1 gene expression microarray in RS4.11 MLL leukemia cells; type: cell-based, human; conditions: RS4.11 cells, 10 μM SB216763, 20 hours
# Experimental: Human MLL leukemia RS4.11 cells were cultured without or with 10 μM SB216763 for 20 hours (Wang et al. 2010). […] SB216763 is a kinase inhibitor and the finding that SB216763 can increase OMA1 levels was unexpected and is non-obvious to a person skilled in the arts. In context of the present invention SB216763 thus represents an agonist of OMA1 and/or an oligomeric complex comprising OMA1 as defined above. Accordingly, SB216763 represents a medical intervention in particular for the treatment, prevention and/or amelioration of a disorder or disease correlated with mitochondrial stress or dysfunction, a mitochondrial disorder or disease, or a disorder or disease characterized by OPA1 alterations.
# Referring to FIG. 23, the GSK-3 inhibitor SB216763 (CAS #280744-09-4) represents an agonist of OMA1. […] RS4.11 cells were cultured for 20 hours without or with 10 μM SB216763, after which mRNA was isolated and analyzed by gene expression microarrays. Controls expressed OMA1 at 8.10 (±0.01 S.D.) and SB216763 treated cells expressed OMA1 at 8.7 (±0.18 S.D.).
# [7] = tested on: OMA1; conditions: RS4.11 cells, 10 μM SB216763, 20 hours; cited from earlier work
# [8] = tested on: OMA1; experiment: OMA1 gene expression microarray in KMH2 cells; type: cell-based, human; conditions: 20 mM glucosamine, 24 hours
# Experimental: Human malignant lymphocytes (KMH2 cells) were cultured without or with 20 mM glucosamine (Carvalho et al. 2014). After 24 hours mRNA was isolated and analyzed by gene expression microarrays. Controls expressed OMA1 at 7.31 (±0.08 S.D.) and glucosamine treated cells expressed OMA1 at 6.69 (±0.06 S.D.). Glucosamine is a dietary supplement and its effects on mitochondria are known to a person skilled in the arts (Carvalho et al. 2014; Bond and Hanover 2015; Tan et al. 2017). […] In context of the present invention glucosamine thus represents an antagonist of OMA1 and/or an oligomeric complex comprising OMA1 as defined above. Accordingly, glucosamine represents a medical intervention in particular for the treatment, prevention and/or amelioration of a disorder or disease correlated with mitochondrial stress or dysfunction, a mitochondrial disorder or disease, or a disorder or disease characterized by OPA1 alterations.
# Referring to FIG. 21, the dietary supplement glucosamine (CAS #3416-24-8) represents an antagonist of OMA1. […] KMH2 cells were cultured for 24 hours without or with 20 mM glucosamine, after which mRNA was isolated and analyzed by gene expression microarrays. Controls expressed OMA1 at 7.31 (±0.08 S.D.) and glucosamine treated cells expressed OMA1 at 6.69 (±0.06 S.D.).
# [9] = tested on: OMA1; conditions: KMH2 cells, 20 mM glucosamine, 24 hours; cited from earlier work
# [10] = tested on: OPA1; conditions: cells cultured with the compound; cited from earlier work
structure (smiles),measurement,setting,value
CC(C)ON(CC(=O)NO)S(=O)(=O)c1ccc(-c2ccccc2)cc1 [ARP100],proteolytic cleavage of large OPA1 isoforms upon CCCP,[1]; 70 μM,all OPA1 isoforms including the large OPA1-L1 and OPA1-L2 isoforms were readily detectable; also recorded: The large OPA1-L1 and OPA1-L2 isoforms were still readily detectable
"N#CC(C#N)=NNc1cccc(Cl)c1 [CCCP, carbonyl cyanide m-chlorophenyl hydrazone]",OMA1 activation / OPA1 cleavage by CCCP alone,"[1]; 10 μM CCCP, 30 minutes","resulted in cleavage of both large OPA1-L1 and OPA1-L2 isoforms; also recorded: could activate OMA1, which resulted in the cleavage of the OPA1-L1 and OPA1-L2 isoforms"
same,OPA1 processing by CCCP alone,"[2]; 0 μM, 3 μM and 5 μM CCCP, untreated (vehicle-only) cells",had no effect on OPA1 processing in untreated cells
same,OPA1 cleavage / OMA1 activation by CCCP alone,"[2]; 7 μM CCCP, untreated (vehicle-only) cells",OPA1 was cleaved only at the highest concentration of 7 μM CCCP; also recorded: OMA1 was activated at the highest concentration of 7 μM CCCP
same,L-OPA1 hydrolysis by CCCP alone,"[3]; 3 μM CCCP, 30 minutes",all L-OPA1 isoforms are hydrolyzed upon CCCP treatment
FC(F)OC(Cl)C(F)(F)F (stereo not shown) [Isoflurane],increase of OMA1 gene expression in rat brain,[4],180% and 280%
same,OMA1 expression level in rat brain,[5]; 5 exposures,19.1 (±3.4 S.D.)
same,OMA1 expression level in rat brain,[5]; 10 exposures,29.3 (±6.3 S.D.)
Cn1cc(C2=C(c3ccc(Cl)cc3Cl)C(=O)NC2=O)c2ccccc21 [SB216763],increase of OMA1 gene expression levels,[6],7.6%
same,OMA1 expression level,[7],8.7 (±0.18 S.D.)
O=S(=O)(CC1CS1)c1ccc(Oc2ccccc2)cc1 (stereo not shown) [SB-3CT],OPA1 cleavage without CCCP,"[2]; 100 μM SB-3CT, 0 μM CCCP",did not show OPA1 alterations; also recorded: did not induce OPA1 cleavage without CCCP
same,OPA1 cleavage / OMA1 activation at low CCCP,"[2]; 100 μM SB-3CT, 3 μM and 5 μM CCCP for 20 minutes",caused OPA1 cleavage to occur already at 3 μM and 5 μM CCCP; also recorded: OMA1 was already activated at lower concentrations of 3 μM and 5 μM CCCP
O=C(O)CNC(=O)C(CS)Cc1ccccc1 (stereo not shown) [Thiorphan],proteolytic cleavage of large OPA1 isoforms upon CCCP,[1]; 100 μM,all OPA1 isoforms including the two large OPA1-L1 and OPA1-L2 isoforms were readily detectable; also recorded: The large OPA1-L1 and OPA1-L2 isoforms were still readily detectable
N[C@H]1C(O)O[C@H](CO)[C@@H](O)[C@@H]1O (stereo partly shown) [glucosamine],decrease of OMA1 gene expression levels,[8],8.5%
same,OMA1 expression level,[9],6.69 (±0.06 S.D.)
c1cnc2c(c1)ccc1cccnc12 [phenanthroline],proteolytic cleavage of large OPA1 isoforms upon CCCP,[1]; 500 μM,The large OPA1-L1 and OPA1-L2 isoforms were still readily detectable; also recorded: inhibited proteolytic cleavage of OPA1 by OMA1
same,OPA1 levels and OPA1L/OPA1S isoforms,[10],an increase in the OPA1L isoform
CNC(=O)c1cc(Oc2ccc(NC(=O)Nc3ccc(Cl)c(C(F)(F)F)c3)cc2)ccn1 [sorafenib],OMA1 activation / OPA1 cleavage by sorafenib alone,"[3]; 30 μM sorafenib, 30 minutes",activate OMA1 and lead to OPA1 cleavage similar to CCCP
CCC[C@@]1(CCc2ccccc2)CC(O)=C([C@H](CC)c2cccc(NS(=O)(=O)c3ccc(C(F)(F)F)cn3)c2)C(=O)O1 [tipranavir],concentration at which tipranavir can activate OMA1,"[3]; Hek293T cells, 1 hour",above 20 μM
